# Assay results published in patent US10780076B2, “Inhibition of cancer cell motility” (Northwestern University, priority 2014, dated 2020).
# Tests used:
# [1] = tested on: phosphorylated Ser226 on HSP90β in PC3 cells; assay: PhosphoScan LC-MS/MS of BL4176 immunoprecipitate; type: cell-based, human; settings: 10 μM, 3 days, then TGFβ
# Experimental: FIG. 16. Identification of the 83 kDa band using a proteomic approach. PC3 cells were pre-treated with 10 μM KBU2046 or vehicle (control) for 3 days, then treated with TGFβ for 1 hr, and the resultant cell lysates were subjected to immunoprecipitation with BL4176 (Kinoview® phospho-motif antibody). Proteins bound in this manner were analyzed using PhosphoScan™ technology. This identified 483 unique phosphopeptide assignments from 306 parent proteins, with a mean false discovery rate of 0.30% (estimated via Sorcerer search of composite human database of forward and reverse protein entries). Only proteins where the average values for treatment and control were each 3 times that of background were considered. Further, it was required that each of the replicate values (used to calculate the average) to be >/=2.5 fold above background. According to these parameters, there were 19 phospho-proteins whose expression decreased in cells treated with KBU2046, compared to control.
# Screening for changes in the kinome induced by KBU2046 were evaluated with the Kinoview™ assay system. Proteins pulled down by motif-directed Kinoview™ antibody were identified through PhosphoScan™ technology, using LTQ-Orbitrap LC-MS/MS analysis coupled to a SEQUEST/Sorcerer data analysis suite (Lundgren et al., 2009; herein incorporated by reference in its entirety). […]
# [2] = Systemic off-target effects: organ histology and organ function; type: in vivo, mice
# Description: FIG. 13. KBU2046 treatment is not associated with systemic off-target effects. […] After 35 days of treatment, the following organs were harvested at necropsy, and stained with H&E (alternative staining methods as indicated): heart, lungs, esophagus, stomach, colon, small intestine, liver (Trichrome staining), kidneys (Trichrome staining), adrenals, bladder, prostate, spleen, pancreas, brain, testes, and bone marrow and peripheral blood (Giemsa staining). Organs were examined for damage using a semi-quantitative histological scoring system (Knodell et al., 1981; herein incorporated by reference in its entirety). […] Changes in the liver observed in control mice were not increased by KBU2046 treatment. […] On day 8 and 14, all critical organs were weighed, and the following parameters measured in blood: cholesterol, triglycerides, alanine aminotransferase (ALT), aspartate aminotransferase (AST), total bilirubin, glucose, phosphorus, total protein, calcium, blood urea nitrogen (BUN), creatinine, albumin, Na, K, Cl, white blood cells (with differential), red blood cells, hemoglobin, platelets.
# Orthotopic implantation of human PCa cells and quantification of distant metastasis was performed as described (Pavese et al., 2013; herein incorporated by reference in its entirety). […] Quantification of KBU2046 plasma concentrations was performed by LCMS. […]
smiles,measurement,setting,value
"O=C1c2ccccc2OCC1c1ccc(F)cc1 (racemic) [KBU2046, 4′-fluoroisoflavanone]",decrease in abundance of phosphorylated Ser226 on HSP90β,[1],6.6 fold
same,organ damage by histologic examination,"[2]; Balb/c athymic mice, 35 days of treatment",No organ damage was observed
same,organ weights and blood chemistry/hematology parameters,"[2]; CD1 mice, single iv 15, 75 or 125 mg/kg, day 8 and 14",No abnormal alterations in any of these parameters were observed
